Measurements as given in US11613546B2, “Substituted pyridotriazine compounds and uses thereof” (Gilead Sciences, Inc., priority 2021, dated 2023).
Like-named read-outs stand apart in the source and are kept apart here.

Experiments:
Format in all cases: cell-based
[1] = system: pLai RLuc reporter virus; test: HIV MT-4 serum shift antiviral reporter assay; settings: Human immunodeficiency virus 1, 72 h
Experimental: To quantify the amount of protein binding to human serum, compounds were serially diluted (1:3) in DMSO and acoustically transferred onto 384-well assay plates via a Labcyte ECHO robot. Each plate contained up to 8 test compounds, including negative and positive controls, (DMSO, 5 μM AZT respectively). Assay plates were prepared in duplicate, and tested in either CCM (cell culture media) or HS/CCM (human serum/cell culture media). MT-4 cells were first pre-infected with pLai RLuc reporter virus for 2 h at 37° C., then further diluted in either CCM (RPMI media, 10% FBS, 1% P/S) or HS/CCM (RPMI media, 10% FBS, 50% HS, 1% P/S), and subsequently added to each plate using a Biotek Micro Flow dispenser. After a 72-h incubation in a humidified and temperature controlled incubator (37° C.), Renilla Glo (Promega) was added to all assay plates and chemiluminescence read using an Envision plate-reader. EC50 values were defined as the compound concentration that causes a 50% decrease in luminescence signal, and were calculated using a sigmoidal dose-response model to generate curve fits. To determine the amount of protein binding, EC50 fold shifts (or EC50 shifts) were calculated by dividing EC50 (HS/CCM)/EC50 (CCM).

[2] = Cytotoxicity assay in MT-4 cells; settings: human
Experimental: (§1) Compounds were tested in a high-throughput 384-well assay format for their ability to inhibit the replication of HIV-1 (IIIB) in MT-4 cells. Compounds were serially diluted (1:3) in DMSO on 384-well polypropylene plates and further diluted 200-fold into complete RPMI media (10% FBS, 1% P/S) using the Biotek Micro Flow and Labcyte ECHO acoustic dispenser. Each plate contained up to 8 test compounds, with negative (No Drug Control) and 5 μM AZT positive controls. MT-4 cells were pre-infected with 10 μL of either RPMI (mock-infected) or a fresh 1:250 dilution of HIV-1 IIIB concentrated virus stock. Infected and uninfected MT-4 cells were further diluted in complete RPMI media and added to each plate using a Micro Flow dispenser. After 5 days incubation in a humidified and temperature controlled incubator (37° C.), Cell Titer Glo (Promega) was added to the assay plates and chemiluminescence read using an Envision plate-reader. EC50 values were defined as the compound concentration that causes a 50% decrease in luminescence signal, and were calculated using a sigmoidal dose-response model to generate curve fits. Cytotoxicity Assay in MT-4 Cells Assays were performed as above except uninfected MT-4 cells were added to each well containing test compound. In addition, 10 μM puromycin was added to the last column of each assay plate to assess a base level of cytotoxicity.

[3] = system: HIV-1 (IIIB); test: Antiviral assay in MT-4 cells; settings: Human immunodeficiency virus 1, IIIB, MT4, 120 h, HIV-1 IIIB infected MT-4 cells, 5 days, Cell Titer Glo; read-out: MT4 EC50
Experimental: Antiviral Assay in MT-4 Cells
as §1, with “fits.” for “fits. Cytotoxicity Assay in MT-4 Cells Assays were performed as above except uninfected MT-4 cells were added to each well containing test compound. In addition, 10 μM puromycin was added to the last column of each assay plate to assess a base level of cytotoxicity.”

[4] = read-out: RLUC 50% HS (nM), HS/CCM: 50% human serum, 72 h, Renilla Glo
[5] = read-out: RLUC CCM (nM), cell culture media (RPMI, 10% FBS), 72 h, Renilla Glo
[6] = uninfected MT-4 cells, 5 days, Cell Titer Glo, read-out: CC50

Compound	EC50 [1, 4]	EC50 [1, 5]	CC50 at 5 days [2, 6]	EC50 [3]	CC50 at 5 days ([2]; CC50 (nM))
CC(C)[C@@H]1C=C[C@H](C)N2CN1n1cc(C(=O)NCc3c(F)cc(F)cc3F)c(=O)c(O)c1C2=O [Example C74, (1S,2R,5S)-8-hydroxy-2-isopropyl-5-methyl-7,9-dioxo-N-(2,4,6-trifluorobenzyl)-2,5,7,9-tetrahydro-1,6-methanopyrido[1,2-b][1,2,5]triazonine-10-carboxamide]	325 nM	0.47 nM	6810 nM	0.9 nM	
CC(C)[C@@H]1CC[C@H](C)N2CN1n1cc(C(=O)NCc3c(F)cc(F)cc3F)c(=O)c(O)c1C2=O [Example C75, (1S,2S,5S)-8-hydroxy-2-isopropyl-5-methyl-7,9-dioxo-N-(2,4,6-trifluorobenzyl)-2,3,4,5,7,9-hexahydro-1,6-methanopyrido[1,2-b][1,2,5]triazonine-10-carboxamide]	277 nM	1.02 nM	10900 nM	2 nM	
C[C@H]1CC[C@@H](CF)N2CN1C(=O)c1c(O)c(=O)c(C(=O)NCc3c(F)cc(F)cc3F)cn12 [Example C77, (1S,2S,5S)-2-(fluoromethyl)-8-hydroxy-5-methyl-7,9-dioxo-N-(2,4,6-trifluorobenzyl)-2,3,4,5,7,9-hexahydro-1,6-methanopyrido[1,2-b][1,2,5]triazonine-10-carboxamide]	296 nM	1.14 nM	15700 nM	2 nM	
C[C@H]1CC[C@@H](C(F)F)N2CN1C(=O)c1c(O)c(=O)c(C(=O)NCc3ccc(F)cc3F)cn12 [Example C81, (1S,2S,5S)—N-(2,4-difluorobenzyl)-2-(difluoromethyl)-8-hydroxy-5-methyl-7,9-dioxo-2,3,4,5,7,9-hexahydro-1,6-methanopyrido[1,2-b][1,2,5]triazonine-10-carboxamide]	723 nM	0.48 nM	13700 nM	1.5 nM	
COC[C@@H]1C=C[C@H](C)N2CN1n1cc(C(=O)NCc3ccc(F)cc3F)c(=O)c(O)c1C2=O [Example C82, (1S,2S,5S)—N-(2,4-difluorobenzyl)-8-hydroxy-2-(methoxymethyl)-5-methyl-7,9-dioxo-2,5,7,9-tetrahydro-1,6-methanopyrido[1,2-b][1,2,5]triazonine-10-carboxamide]	75 nM	0.73 nM	16800 nM	1.3 nM	
COC[C@@H]1CC[C@H](C)N2CN1n1cc(C(=O)NCc3ccc(F)cc3F)c(=O)c(O)c1C2=O [Example C83, (1S,2S,5S)—N-(2,4-difluorobenzyl)-8-hydroxy-2-(methoxymethyl)-5-methyl-7,9-dioxo-2,3,4,5,7,9-hexahydro-1,6-methanopyrido[1,2-b][1,2,5]triazonine-10-carboxamide]	261 nM	1.97 nM	30500 nM	3.6 nM	
C[C@H]1CCC2(CCOC2)N2CN1C(=O)c1c(O)c(=O)c(C(=O)NCc3c(F)cc(F)cc3F)cn12 (stereo partly drawn) [Example C86, (1′S,5′S)-8′-hydroxy-5′-methyl-7′,9′-dioxo-N-(2,4,6-trifluorobenzyl)-4,4′,5,5′,7′,9′-hexahydro-2H,3′H-spiro[furan-3,2′-[1,6]methanopyrido[1,2-b][1,2,5]triazonine]-10′-carboxamide]	14.1 nM	0.27 nM		0.5 nM	26000 nM
C[C@@H]1C=CC(C)(C)N2CN1n1cc(C(=O)NCc3ccc(F)cc3F)c(=O)c(O)c1C2=O [Example C90, (1S,2R)—N-(2,4-difluorobenzyl)-8-hydroxy-2,5,5-trimethyl-7,9-dioxo-2,5,7,9-tetrahydro-1,6-methanopyrido[1,2-b][1,2,5]triazonine-10-carboxamide]	91.9 nM	0.35 nM	47100 nM	2 nM	
C[C@H]1CC[C@@H](CF)N2CN1n1cc(C(=O)NCc3ccc(F)cc3F)c(=O)c(O)c1C2=O [Example C96, (1R,2S,5S)—N-(2,4-difluorobenzyl)-5-(fluoromethyl)-8-hydroxy-2-methyl-7,9-dioxo-2,3,4,5,7,9-hexahydro-1,6-methanopyrido[1,2-b][1,2,5]triazonine-10-carboxamide]	958 nM	8.27 nM	5370 nM	11.2 nM	
C[C@H]1C=C[C@@H](CF)N2CN1n1cc(C(=O)NCc3ccc(F)cc3F)c(=O)c(O)c1C2=O [Example C97, (1R,2S,5S)—N-(2,4-difluorobenzyl)-5-(fluoromethyl)-8-hydroxy-2-methyl-7,9-dioxo-2,5,7,9-tetrahydro-1,6-methanopyrido[1,2-b][1,2,5]triazonine-10-carboxamide]	1730 nM	14.7 nM	9550 nM	34.9 nM	
C[C@@H]1CC[C@H](CF)N2CN1n1cc(C(=O)NCc3ccc(F)cc3F)c(=O)c(O)c1C2=O [Example C98, (1S,2R,5R)—N-(2,4-difluorobenzyl)-5-(fluoromethyl)-8-hydroxy-2-methyl-7,9-dioxo-2,3,4,5,7,9-hexahydro-1,6-methanopyrido[1,2-b][1,2,5]triazonine-10-carboxamide]	462 nM	1.03 nM	8930 nM	2 nM	
C[C@@H]1C[C@H](F)[C@H](CF)N2CN1n1cc(C(=O)NCc3c(F)cc(F)cc3F)c(=O)c(O)c1C2=O [Example C99, (1S,2R,4S,5S)-4-fluoro-5-(fluoromethyl)-8-hydroxy-2-methyl-7,9-dioxo-N-(2,4,6-trifluorobenzyl)-2,3,4,5,7,9-hexahydro-1,6-methanopyrido[1,2-b][1,2,5]triazonine-10-carboxamide]	349 nM	0.52 nM	9440 nM	1.7 nM	
C[C@H]1C=CC2(CCC2)N2CN1C(=O)c1c(O)c(=O)c(C(=O)NCc3c(F)cc(F)cc3F)cn12 [Example C104, (1′S,5′S)-8′-hydroxy-5′-methyl-7′,9′-dioxo-N-(2,4,6-trifluorobenzyl)-7′,9′-dihydro-5′H-spiro[cyclobutane-1,2′-[1,6]methanopyrido[1,2-b][1,2,5]triazonine]-10′-carboxamide]	140 nM	0.44 nM		1.4 nM	19700 nM
C[C@H]1CCC2(CCC2)N2CN1C(=O)c1c(O)c(=O)c(C(=O)NCc3c(F)cc(F)cc3F)cn12 [Example C105, (1′S,5′S)-8′-hydroxy-5′-methyl-7′,9′-dioxo-N-(2,4,6-trifluorobenzyl)-4′,5′,7′,9′-tetrahydro-3′H-spiro[cyclobutane-1,2′-[1,6]methanopyrido[1,2-b][1,2,5]triazonine]-10′-carboxamide]	998 nM	1.38 nM		3 nM	13600 nM
CC[C@H]1C=C[C@H](C)N2CN1n1cc(C(=O)NCc3c(F)cc(F)cc3F)c(=O)c(O)c1C2=O [Example C106, (1S,2S,5S)-2-ethyl-8-hydroxy-5-methyl-7,9-dioxo-N-(2,4,6-trifluorobenzyl)-2,5,7,9-tetrahydro-1,6-methanopyrido[1,2-b][1,2,5]triazonine-10-carboxamide]	107 nM	0.22 nM	18400 nM	1.7 nM	
